Assay results: patent publication US9522888B2, “Substituted bicyclic compounds” (BRISTOL-MYERS SQUIBB COMPANY, priority 2014, dated 2016)
pEC50, pIC50: −log10 of the molar value.

How the values were obtained:
human S1P1 = human S1P1 (Homo sapiens (Human), UniProt P21453); experiment: S1P1 binding assay (33P-S1P radioligand competition, CHO cell membranes); conditions: phosphate examples; read-out: S1P1 Binding
Procedure: Membranes were prepared from CHO cells expressing human S1P1. Cells pellets (1×10^9 cells/pellet) were suspended in buffer containing 20 mM HEPES (4-(2-hydroxyethyl)-1-piperazineethanesulfonic acid), pH 7.5, 50 mM NaCl, 2 mM EDTA (Ethylenediaminetetraacetic acid) and Protease Inhibitor cocktail (Roche), and disrupted on ice using the Polytron homogenizer. The homogenate was centrifuged at 20,000 rpm (48,000 g) and the supernatant was discarded. The membrane pellets were resuspended in buffer containing 50 mM HEPES, pH 7.5, 100 mM NaCl, 1 mM MgCl2, 2 mM EDTA and stored in aliquots at −80° C. after protein concentration determination.

[1] = biological target: S1P1 (membranes prepared from S1P1/CHO cells) (Homo sapiens (Human), UniProt P21453); experiment: Receptor [35S] GTPγS binding assay (S1P1 GTPγS); type: biochemical; conditions: phosphate examples; read-out: S1P1 GTPγS
S1P1 (membranes prepared from S1P1/CHO cells), sequence (P21453 whole entry): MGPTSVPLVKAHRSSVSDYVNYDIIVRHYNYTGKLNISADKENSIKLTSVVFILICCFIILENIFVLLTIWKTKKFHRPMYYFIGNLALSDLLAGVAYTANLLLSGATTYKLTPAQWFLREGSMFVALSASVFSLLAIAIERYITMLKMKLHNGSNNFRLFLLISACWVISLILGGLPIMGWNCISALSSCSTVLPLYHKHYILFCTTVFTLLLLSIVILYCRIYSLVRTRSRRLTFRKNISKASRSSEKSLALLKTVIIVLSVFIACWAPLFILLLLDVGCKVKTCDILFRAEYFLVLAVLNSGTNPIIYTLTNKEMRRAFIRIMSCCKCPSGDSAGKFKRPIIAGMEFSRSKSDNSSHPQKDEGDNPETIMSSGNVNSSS
Procedure: (§1) Receptor [^35S] GTPγS Binding Assays: (S1P1 GTPγS/S1P3 GTPγS)
Compounds were loaded in a 384 Falcon v-bottom plate (0.5 μl/well in a 11 point, 3-fold dilution). Membranes prepared from S1P1/CHO cells or EDG3-Gal5-bla HEK293T cells (EDG3 equivalent S1P3) were added to the compound plate (40 μl/well, final protein 3 μg/well) with MULTIDROP®. [^35S] GTP (1250 Ci/mmol, Perkin Elmer) was diluted in assay buffer: 20 mM HEPES, pH7.5, 10 mM MgCl2, 150 mM NaCl, 1 mM EGTA (ethylene glycol tetraacetic acid), 1 mM DTT (Dithiothreitol), 10 μM GDP, 0.1% fatty acid free BSA, and 10 μg/ml Saponin to 0.4 nM. 40 μl of the [^35S] GTP solution was added to the compound plate with a final concentration of 0.2 nM. The reaction was kept at room temperature for 45 min. At the end of incubation, all the mixtures in the compound plate were transferred to Millipore 384-well FB filter plates via the VELOCITY11® Vprep liquid handler. The filter plate was washed with water 4 times by using the manifold Embla plate washer and dried at 60° C. for 45 min. MicroScint 20 scintillation fluid (30 μl) was added to each well for counting on the Packard TOPCOUNT®. […]

[2] = biological target: S1P3 (membranes prepared from EDG3-Gal5-bla HEK293T cells) (Homo sapiens (Human), UniProt Q99500); experiment: Receptor [35S] GTPγS binding assay (S1P3 GTPγS); type: biochemical; conditions: phosphate examples; read-out: S1P3 GTPγS
S1P3 (membranes prepared from EDG3-Gal5-bla HEK293T cells), sequence (Q99500 whole entry): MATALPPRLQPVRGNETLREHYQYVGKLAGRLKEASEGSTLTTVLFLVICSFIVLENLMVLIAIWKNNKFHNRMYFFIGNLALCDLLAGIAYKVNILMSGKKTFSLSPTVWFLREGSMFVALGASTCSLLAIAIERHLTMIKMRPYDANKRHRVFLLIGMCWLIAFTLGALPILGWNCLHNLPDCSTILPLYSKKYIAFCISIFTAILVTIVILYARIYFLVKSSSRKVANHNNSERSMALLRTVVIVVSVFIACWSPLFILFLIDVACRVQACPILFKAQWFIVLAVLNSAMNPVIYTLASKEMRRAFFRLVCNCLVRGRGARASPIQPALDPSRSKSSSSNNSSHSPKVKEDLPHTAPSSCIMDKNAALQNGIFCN
Procedure: as §1
Compounds were loaded in a 384 Falcon v-bottom plate (0.5 μl/well in a 11 point, 3-fold dilution). Membranes prepared from S1P1/CHO cells or EDG3-Gal5-bla HEK293T cells (EDG3 equivalent S1P3) were added to the compound plate (40 μl/well, final protein 3 μg/well) with MULTIDROP®. [^35S] GTP (1250 Ci/mmol, Perkin Elmer) was diluted in assay buffer: 20 mM HEPES, pH7.5, 10 mM MgCl2, 150 mM NaCl, 1 mM EGTA (ethylene glycol tetraacetic acid), 1 mM DTT (Dithiothreitol), 10 μM GDP, 0.1% fatty acid free BSA, and 10 μg/ml Saponin to 0.4 nM. 40 μl of the [^35S] GTP solution was added to the compound plate with a final concentration of 0.2 nM. The reaction was kept at room temperature for 45 min. At the end of incubation, all the mixtures in the compound plate were transferred to Millipore 384-well FB filter plates via the VELOCITY11® Vprep liquid handler. The filter plate was washed with water 4 times by using the manifold Embla plate washer and dried at 60° C. for 45 min. MicroScint 20 scintillation fluid (30 μl) was added to each well for counting on the Packard TOPCOUNT®.
A smaller value for GTPγS S1P1 EC50 value indicated greater activity for the compound in the GTPγS S1P1 binding assay. A larger value for the GTPγS S1P3 EC50 value indicated less activity in the GTPγS S1P3 binding assay. […] Thus the compounds of the present invention may be used in treating, preventing, or curing various S1P1 receptor-related conditions while reducing or minimizing the side effects due to S1P3 activity. The selectivity of the compounds of the present invention indicate their potential use in treating, preventing, or curing autoimmune and inflammatory diseases such as multiple sclerosis, rheumatoid arthritis, inflammatory bowel disease, lupus, psoriasis, or vascular diseases, while reducing or minimizing possible side effects due to S1P3 activity. Other potential uses of the compounds of the present invention include minimizing or reducing rejection of transplanted organs, while reducing or minimizing side effects due to S1P3 activity.

hS1P1/CHO cells = hS1P1/CHO cells (Homo sapiens (Human), UniProt P21453); experiment: hS1P1 ERK phosphorylation (S1P1 pERK); type: cell-based; conditions: phosphate examples
hS1P1/CHO cells, sequence (P21453 whole entry): as the sequence (P21453 whole entry) above
Procedure: hS1P1 ERK Phosphorylation (S1P1 pERK)
hS1P1/CHO cells were plated into BD Amine 384-well plates the day before the assay. On the day of the assay, growth medium was removed and replaced with serum-free medium (Ham's F-12 Invitrogen) and incubated for 2 hours. Test compounds pre-diluted in HBSS (Gibco)/20 mM HEPES (Gibco) were transferred to the cell plates and incubated for 7 minutes at 37° C. Cells were lysed in lysis buffer (Perkin Elmer) and phospho-ERK was measured using the SureFire pERK kit (Perkin Elmer) as described by the manufacturer. Data was plotted as percentage activation of the test compound relative to the efficacy of 10 μM S1P.

human S1P1, sequence (P21453 whole entry): as above

| pIC50 (human S1P1) | pEC50 [1] | pEC50 [2] | pEC50 (hS1P1/CHO cells) | SMILES |
| --- | --- | --- | --- | --- |
| 7.00 to 8.00 | 7.00 to 8.00 | < 6.20 | > 8.00 | COCc1ccc(C[C@@H]2CCc3cc([C@H]4CC[C@](N)(COP(=O)(O)O)C4)ccc3C2)cc1 [compound 550] |
| 7.00 to 8.00 | 7.00 to 8.00 | < 6.20 | 7.00 to 8.00 | Cc1ccccc1SC[C@@H]1CCc2cc([C@H]3CC[C@](N)(COP(=O)(O)O)C3)ccc2C1 [compound 520] |
| 7.00 to 8.00 | 6.00 to 7.00 | < 6.20 | > 8.00 | COc1cccc(OCC[C@@H]2CCc3cc([C@H]4CC[C@](N)(COP(=O)(O)O)C4)ccc3C2)c1 [compound 544] |
| > 8.00 | 7.00 to 8.00 | < 6.20 | 7.00 to 8.00 | N[C@]1(COP(=O)(O)O)CC[C@H](c2ccc3c(c2)CC[C@@H](COCc2ccc(C(F)(F)F)s2)C3)C1 [compound 499] |
| > 8.00 | 7.00 to 8.00 | < 6.20 | > 8.00 | COc1cncc(OC[C@@H]2CCc3cc([C@H]4CC[C@](N)(COP(=O)(O)O)C4)ccc3C2)c1 [compound 477] |
| 7.00 to 8.00 | > 8.00 | < 7.00 | > 8.00 | CC(C)OCCCC[C@H]1CCc2cc([C@H]3CC[C@](N)(COP(=O)(O)O)C3)ccc2C1 [compound 610] |
| > 8.00 | > 8.00 | < 7.30 | > 8.00 | CCCC=CCOC[C@@H]1CCc2cc([C@H]3CC[C@](N)(COP(=O)(O)O)C3)ccc2C1 [compound 462] |
| > 8.00 | > 8.00 | < 6.20 | 7.00 to 8.00 | COCCCCCC[C@H]1CCc2cc(C3CCC(N)(COP(=O)(O)O)C3)ccc2C1 (single isomer, unassigned) [compound 597] |
| > 8.00 | > 8.00 | < 6.20 | > 8.00 | CCOc1cccc(CO[C@@H]2CCc3cc([C@H]4CC[C@](N)(COP(=O)(O)O)C4)ccc3C2)c1 [compound 444] |
| > 8.00 | 7.00 to 8.00 | < 6.20 | > 8.00 | COc1ccccc1OC[C@@H]1CCc2cc([C@H]3CC[C@](N)(COP(=O)(O)O)C3)ccc2C1 [compound 475] |
| 7.00 to 8.00 | 6.00 to 7.00 | < 6.20 | > 8.00 | CCCCCCN1CCc2cc([C@@H]3CC[C@](N)(COP(=O)(O)O)C3)ccc2C1=O [compound 417] |
| > 8.00 | 7.00 to 8.00 | < 6.20 | > 8.00 | CC/C=C/CC[C@H]1CCc2cc([C@H]3CC[C@](N)(COP(=O)(O)O)C3)ccc2C1 [compound 658] |
| > 8.00 | > 8.00 | < 6.20 | > 8.00 | CCCSC[C@@H]1CCc2cc([C@H]3CC[C@](N)(COP(=O)(O)O)C3)ccc2C1 [compound 503] |
| 7.00 to 8.00 | 7.00 to 8.00 | < 6.20 | 7.00 to 8.00 | COc1ccc(SC[C@@H]2CCc3cc([C@H]4CC[C@](N)(COP(=O)(O)O)C4)ccc3C2)cc1OC [compound 531] |
| > 8.00 | > 8.00 | < 6.20 | > 8.00 | C/C=C\CCCC[C@@H]1CCc2cc([C@H]3CC[C@](N)(COP(=O)(O)O)C3)ccc2C1 [compound 661] |
| 7.00 to 8.00 | 7.00 to 8.00 | < 6.20 | 7.00 to 8.00 | C/C=C\CCC[C@@H]1CCc2cc([C@H]3CC[C@](N)(COP(=O)(O)O)C3)ccc2C1 [compound 656] |
| 7.00 to 8.00 | 7.00 to 8.00 | < 6.20 | > 8.00 | CC(C)(C)CSC[C@@H]1CCc2cc([C@H]3CC[C@](N)(COP(=O)(O)O)C3)ccc2C1 [compound 515] |
| 7.00 to 8.00 | 7.00 to 8.00 | < 6.20 | 7.00 to 8.00 | CC/C=C\CC[C@@H]1CCc2cc([C@H]3CC[C@](N)(COP(=O)(O)O)C3)ccc2C1 [compound 651] |
| > 8.00 | 7.00 to 8.00 | < 6.20 | 7.00 to 8.00 | COc1ccc(CC[C@@H]2CCc3cc(C4CCC(N)(COP(=O)(O)O)C4)ccc3C2)cc1 (single isomer, unassigned) [compound 593] |
| 7.00 to 8.00 | 7.00 to 8.00 | < 6.20 | 7.00 to 8.00 | CCCCOC[C@@H]1COc2cc([C@@H]3CC[C@](N)(COP(=O)(O)O)C3)ccc2O1 [compound 415] |
| > 8.00 | 7.00 to 8.00 | < 6.20 | > 8.00 | N[C@]1(COP(=O)(O)O)CC[C@H](c2ccc3c(c2)CC[C@@H](CSCCc2ccncc2)C3)C1 [compound 525] |
| > 8.00 | 7.00 to 8.00 | < 6.20 | > 8.00 | CCCCO[C@H]1CCc2cc([C@H]3CC[C@](N)(COP(=O)(O)O)C3)ccc2C1 [compound 436] |
| > 8.00 | > 8.00 | < 6.20 | > 8.00 | CC(C)OCCC[C@@H]1CCc2cc([C@@H]3CC[C@@](N)(COP(=O)(O)O)C3)ccc2C1 [compound 602] |
| > 8.00 | > 8.00 | < 6.20 | > 8.00 | CC(C)CSCC[C@@H]1CCc2cc([C@H]3CC[C@](N)(COP(=O)(O)O)C3)ccc2C1 [compound 538] |
| 6.00 to 7.00 | 6.00 to 7.00 | < 6.20 | 7.00 to 8.00 | N[C@@]1(COP(=O)(O)O)CC[C@@H](c2ccc3c(c2)CC[C@H](CCc2ccc4ccccc4n2)C3)C1 (single isomer, unassigned) [compound 604] |
| > 8.00 | 7.00 to 8.00 | < 6.20 | > 8.00 | CCCCC1CCc2cc([C@H]3CC[C@](N)(COP(=O)(O)O)C3)ccc2C1=O (stereo partly drawn) [compound 635] |
| 7.00 to 8.00 | 7.00 to 8.00 | < 6.20 | > 8.00 | CN(C)C(=O)c1cccc(OC[C@@H]2CCc3cc([C@H]4CC[C@](N)(COP(=O)(O)O)C4)ccc3C2)c1 [compound 495] |
| > 8.00 | > 8.00 | < 6.20 | > 8.00 | COCCC/C=C/[C@@H]1CCc2cc([C@H]3CC[C@](N)(COP(=O)(O)O)C3)ccc2C1 [compound 640] |
| > 8.00 | > 8.00 | < 6.20 | > 8.00 | COc1cccc(CO[C@H]2CCc3cc([C@H]4CC[C@](N)(COP(=O)(O)O)C4)ccc3C2)c1 [compound 442] |
| 7.00 to 8.00 | 7.00 to 8.00 | < 6.20 | > 8.00 | CCCC[C@H]1CCCC2(CCc3cc([C@H]4CC[C@](N)(COP(=O)(O)O)C4)ccc3C2)O1 (stereo partly drawn) [compound 632] |
